Experimental data published in patent US5631259A, “Cycloalkltriols containing cyclic substituents, processes and intermediate products for their preparation and their use as antiviral and antiparasitic agents” (priority 1991, dated 1997).

How the values were obtained:
[1] = in vitro; conditions: human, hela cells
[2] = system: Pneumocystis carinii; assay: Pneumocystis carinii pneumonia in dexamethasone-treated rats, bronchial lavage evaluated with Pneumocystis carinii test kit; type: in vivo, Spraque-Dawley rats; conditions: Monday, Wednesday and Friday for two weeks
Procedure: Pneumocystis carinii--Description of the experiment and results
Spraque-Dawley rats, 200-220 g, were collected into groups of 10 animals and treated with dexamethasone 1.5 mg/ml; of loxacin 0.2 mg/rat via the drinking water in order to induce the outbreak of pneumonia caused by Pneumocystis carinii.
After 7 weeks, the dexamethasone treatment was stopped and the preparation treatment was started.
Treatment was carried out every Monday, Wednesday and Friday for two weeks as follows:
2. pentamidine 20 mg/kg i.m.
3. pentamidine 40 mg/kg i.m.
After the two treatment weeks, a bronchial lavage was performed on the animals under Nembutal anesthesia.
The bronchial suspensions obtained were worked up and evaluated using the Pneumocystis carinii test kit from Progen Biotechnik GmbH, Heidelberg, Germany.

CNc1ncnc2c1ncn2[C@H]1C[C@@H](O)[C@H](O)[C@@H]1O (relative stereo) [Example 3.3, N^6-methyl-9-[(1RS,2SR,3RS,4SR)-trihydroxy-cyclopent-1-yl]adenine]
MNTC [1]: > 400 µg/mL

Nc1ncnc2c1ncn2[C@@H]1C[C@H](O)[C@@H](O)[C@H]1O (racemic) [Example 3.1.1, 9-[(1RS,2SR,3RS,4SR)-2,3,4-trihydroxycyclo-pent-1-yl]adenine]
MNTC [1]: > 400 µg/mL

N=C(N)c1ccc(OCCCCCOc2ccc(C(=N)N)cc2)cc1 [pentamidine]
Reduction (%) ([2]; 20 mg/kg i.m.): 37.7%
Reduction (%) ([2]; 40 mg/kg i.m.): 16.9%

O=c1c(Cl)c(Cl)cnn1[C@@H]1C[C@H](O)[C@@H](O)[C@H]1O (racemic) [Example 3.10.1, 4,5-dichloro-2-[(1RS,2SR,3RS,4SR)-2,3,4-trihydroxy-cyclopent-1-yl]pyridazin-3(2H)-one]
Reduction (%) ([2]; 20 mg/kg oral): 22.9%
